Measured values as given in ChEMBL document CHEMBL4507277.

Columns and labels:
[1] = molecular target: Citron Rho-interacting kinase (Homo sapiens) (UniProt O14578); settings: Compound concentration 1000.0 nM
[2] = molecular target: Protein-tyrosine kinase 2-beta (Homo sapiens) (UniProt Q14289); settings: Compound concentration 1000.0 nM
[3] = molecular target: Mitogen-activated protein kinase kinase kinase 11 (Homo sapiens) (UniProt Q16584); settings: Compound concentration 1000.0 nM
[4] = molecular target: Ribosomal protein S6 kinase alpha-3 (Homo sapiens) (UniProt P51812); settings: Compound concentration 1000.0 nM
[5] = molecular target: Dual specificity mitogen-activated protein kinase kinase 2 (Homo sapiens) (UniProt P36507); settings: Compound concentration 1000.0 nM
[6] = molecular target: Tyrosine-protein kinase SYK (Homo sapiens) (UniProt P43405); settings: Compound concentration 1000.0 nM
[7] = molecular target: Protein kinase C eta type (Homo sapiens) (UniProt P24723); settings: Compound concentration 1000.0 nM
[8] = molecular target: MAP kinase-activated protein kinase 5 (Homo sapiens) (UniProt Q8IW41); settings: Compound concentration 1000.0 nM
[9] = molecular target: Ribosomal protein S6 kinase beta-1 (Homo sapiens) (UniProt P23443); settings: Compound concentration 1000.0 nM
[10] = molecular target: Tyrosine-protein kinase JAK2 (Homo sapiens) (UniProt O60674); settings: Compound concentration 1000.0 nM
[11] = molecular target: Mitogen-activated protein kinase 8 (Homo sapiens) (UniProt P45983); settings: Compound concentration 1000.0 nM
[12] = molecular target: Myosin light chain kinase (Homo sapiens) (UniProt Q32MK0); settings: Compound concentration 1000.0 nM
[13] = molecular target: Ribosomal protein S6 kinase alpha-6 (Homo sapiens) (UniProt Q9UK32); settings: Compound concentration 1000.0 nM
[14] = molecular target: Peripheral plasma membrane protein CASK (Homo sapiens) (UniProt O14936); settings: Compound concentration 1000.0 nM
[15] = molecular target: Tyrosine-protein kinase JAK3 (Homo sapiens) (UniProt P52333); settings: Compound concentration 1000.0 nM
[16] = molecular target: Tyrosine-protein kinase ITK/TSK (Homo sapiens) (UniProt Q08881); settings: Compound concentration 1000.0 nM
[17] = molecular target: Tyrosine-protein kinase TXK (Homo sapiens) (UniProt P42681); settings: Compound concentration 1000.0 nM
[18] = molecular target: Dual specificity mitogen-activated protein kinase kinase 1 (Homo sapiens) (UniProt Q02750); settings: Compound concentration 1000.0 nM
[19] = molecular target: Interleukin-1 receptor-associated kinase 3 (Homo sapiens) (UniProt Q9Y616); settings: Compound concentration 1000.0 nM
[20] = molecular target: STE20-like serine/threonine-protein kinase (Homo sapiens) (UniProt Q9H2G2); settings: Compound concentration 1000.0 nM
[21] = system: Tyrosine-protein kinase ABL1 (Homo sapiens), P00519 [T315I]; settings: Compound concentration 1000.0 nM
[22] = molecular target: Homeodomain-interacting protein kinase 1 (Homo sapiens) (UniProt Q86Z02); settings: Compound concentration 1000.0 nM
[23] = molecular target: Platelet-derived growth factor receptor alpha (Homo sapiens) (UniProt P16234); settings: Compound concentration 1000.0 nM
[24] = molecular target: Serine/threonine-protein kinase Nek1 (Homo sapiens) (UniProt Q96PY6); settings: Compound concentration 1000.0 nM
[25] = molecular target: G protein-coupled receptor kinase 3 (Homo sapiens) (UniProt P35626); settings: Compound concentration 1000.0 nM
[26] = molecular target: RAC-alpha serine/threonine-protein kinase (Homo sapiens) (UniProt P31749); settings: Compound concentration 1000.0 nM
[27] = molecular target: Alpha-2B adrenergic receptor (Homo sapiens) (UniProt P18089); settings: Compound concentration 10.0 uM
[28] = molecular target: Serine/threonine-protein kinase pim-2 (Homo sapiens) (UniProt Q9P1W9); settings: Compound concentration 1000.0 nM
[29] = molecular target: Phosphorylase b kinase gamma catalytic chain, skeletal muscle/heart isoform (Homo sapiens) (UniProt Q16816); settings: Compound concentration 1000.0 nM
[30] = molecular target: Receptor-interacting serine/threonine-protein kinase 4 (Homo sapiens) (UniProt P57078); settings: Compound concentration 1000.0 nM
[31] = molecular target: Serine/threonine-protein kinase 10 (Homo sapiens) (UniProt O94804); settings: Compound concentration 1000.0 nM
[32] = system: Epidermal growth factor receptor (Homo sapiens), P00533 [UNDEFINED MUTATION]; settings: Compound concentration 1000.0 nM
[33] = molecular target: Bone morphogenetic protein receptor type-1B (Homo sapiens) (UniProt O00238); settings: Compound concentration 1000.0 nM
[34] = molecular target: Mitogen-activated protein kinase 14 (Homo sapiens) (UniProt Q16539); settings: Compound concentration 1000.0 nM
[35] = system: Tyrosine-protein kinase ABL1 (Homo sapiens), P00519 [F317L]; settings: Compound concentration 1000.0 nM
[36] = molecular target: Angiopoietin-1 receptor (Homo sapiens) (UniProt Q02763); settings: Compound concentration 1000.0 nM
[37] = system: Receptor-type tyrosine-protein kinase FLT3 (Homo sapiens), P36888 [R834Q]; settings: Compound concentration 1000.0 nM
[38] = molecular target: Serine/threonine-protein kinase 32B (Homo sapiens) (UniProt Q9NY57); settings: Compound concentration 1000.0 nM
[39] = molecular target: Mitogen-activated protein kinase kinase kinase kinase 4 (Homo sapiens) (UniProt O95819); settings: Compound concentration 1000.0 nM
[40] = molecular target: Atypical kinase COQ8A, mitochondrial (Homo sapiens) (UniProt Q8NI60); settings: Compound concentration 1000.0 nM
[41] = molecular target: Protein kinase C iota type (Homo sapiens) (UniProt P41743); settings: Compound concentration 1000.0 nM
[42] = molecular target: cAMP-dependent protein kinase catalytic subunit alpha (Homo sapiens) (UniProt P17612); settings: Compound concentration 1000.0 nM
[43] = molecular target: Glycogen synthase kinase-3 beta (Homo sapiens) (UniProt P49841); settings: Compound concentration 1000.0 nM
[44] = molecular target: Mast/stem cell growth factor receptor Kit (Homo sapiens) (UniProt P10721); settings: Compound concentration 1000.0 nM
[45] = molecular target: Serine/threonine-protein kinase PAK 4 (Homo sapiens) (UniProt O96013); settings: Compound concentration 1000.0 nM

Chain of Ribosomal protein S6 kinase alpha-6 (Homo sapiens) (Q9UK32 whole entry): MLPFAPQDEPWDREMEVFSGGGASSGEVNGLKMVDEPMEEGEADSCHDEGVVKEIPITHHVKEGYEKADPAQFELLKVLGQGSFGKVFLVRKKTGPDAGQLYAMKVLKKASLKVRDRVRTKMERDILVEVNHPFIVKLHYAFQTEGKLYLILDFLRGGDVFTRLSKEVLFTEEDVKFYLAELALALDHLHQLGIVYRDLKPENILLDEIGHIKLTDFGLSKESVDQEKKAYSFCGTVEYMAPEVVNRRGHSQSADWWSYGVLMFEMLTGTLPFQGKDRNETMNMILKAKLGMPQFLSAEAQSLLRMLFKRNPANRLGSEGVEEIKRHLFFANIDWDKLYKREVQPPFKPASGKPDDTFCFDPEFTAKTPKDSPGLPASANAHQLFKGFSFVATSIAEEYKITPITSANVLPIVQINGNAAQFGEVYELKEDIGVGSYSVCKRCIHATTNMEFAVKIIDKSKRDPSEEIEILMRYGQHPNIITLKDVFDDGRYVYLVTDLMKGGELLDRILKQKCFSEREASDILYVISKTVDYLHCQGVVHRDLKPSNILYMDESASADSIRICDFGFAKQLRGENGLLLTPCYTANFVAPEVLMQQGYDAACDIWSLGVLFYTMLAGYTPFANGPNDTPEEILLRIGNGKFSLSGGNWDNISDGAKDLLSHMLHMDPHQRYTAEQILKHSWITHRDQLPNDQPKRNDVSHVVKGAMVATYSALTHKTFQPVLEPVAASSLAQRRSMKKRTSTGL
Chain of Protein kinase C iota type (Homo sapiens) (P41743 whole entry): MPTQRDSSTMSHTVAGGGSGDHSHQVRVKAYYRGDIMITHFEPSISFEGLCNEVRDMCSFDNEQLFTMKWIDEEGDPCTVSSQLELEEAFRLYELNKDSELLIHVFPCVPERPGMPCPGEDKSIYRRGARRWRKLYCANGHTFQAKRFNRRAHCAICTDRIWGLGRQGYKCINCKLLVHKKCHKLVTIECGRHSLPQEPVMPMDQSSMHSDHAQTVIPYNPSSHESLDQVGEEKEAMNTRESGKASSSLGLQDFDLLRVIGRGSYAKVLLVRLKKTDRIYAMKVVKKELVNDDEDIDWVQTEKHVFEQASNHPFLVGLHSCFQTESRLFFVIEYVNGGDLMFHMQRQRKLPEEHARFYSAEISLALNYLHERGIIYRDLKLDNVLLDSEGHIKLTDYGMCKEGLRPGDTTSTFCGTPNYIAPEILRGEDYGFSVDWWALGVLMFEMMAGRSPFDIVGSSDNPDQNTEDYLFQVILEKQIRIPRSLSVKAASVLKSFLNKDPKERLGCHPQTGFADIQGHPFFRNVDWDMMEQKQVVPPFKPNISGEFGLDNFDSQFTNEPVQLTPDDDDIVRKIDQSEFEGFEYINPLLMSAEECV
Chain of Serine/threonine-protein kinase Nek1 (Homo sapiens) (Q96PY6 whole entry): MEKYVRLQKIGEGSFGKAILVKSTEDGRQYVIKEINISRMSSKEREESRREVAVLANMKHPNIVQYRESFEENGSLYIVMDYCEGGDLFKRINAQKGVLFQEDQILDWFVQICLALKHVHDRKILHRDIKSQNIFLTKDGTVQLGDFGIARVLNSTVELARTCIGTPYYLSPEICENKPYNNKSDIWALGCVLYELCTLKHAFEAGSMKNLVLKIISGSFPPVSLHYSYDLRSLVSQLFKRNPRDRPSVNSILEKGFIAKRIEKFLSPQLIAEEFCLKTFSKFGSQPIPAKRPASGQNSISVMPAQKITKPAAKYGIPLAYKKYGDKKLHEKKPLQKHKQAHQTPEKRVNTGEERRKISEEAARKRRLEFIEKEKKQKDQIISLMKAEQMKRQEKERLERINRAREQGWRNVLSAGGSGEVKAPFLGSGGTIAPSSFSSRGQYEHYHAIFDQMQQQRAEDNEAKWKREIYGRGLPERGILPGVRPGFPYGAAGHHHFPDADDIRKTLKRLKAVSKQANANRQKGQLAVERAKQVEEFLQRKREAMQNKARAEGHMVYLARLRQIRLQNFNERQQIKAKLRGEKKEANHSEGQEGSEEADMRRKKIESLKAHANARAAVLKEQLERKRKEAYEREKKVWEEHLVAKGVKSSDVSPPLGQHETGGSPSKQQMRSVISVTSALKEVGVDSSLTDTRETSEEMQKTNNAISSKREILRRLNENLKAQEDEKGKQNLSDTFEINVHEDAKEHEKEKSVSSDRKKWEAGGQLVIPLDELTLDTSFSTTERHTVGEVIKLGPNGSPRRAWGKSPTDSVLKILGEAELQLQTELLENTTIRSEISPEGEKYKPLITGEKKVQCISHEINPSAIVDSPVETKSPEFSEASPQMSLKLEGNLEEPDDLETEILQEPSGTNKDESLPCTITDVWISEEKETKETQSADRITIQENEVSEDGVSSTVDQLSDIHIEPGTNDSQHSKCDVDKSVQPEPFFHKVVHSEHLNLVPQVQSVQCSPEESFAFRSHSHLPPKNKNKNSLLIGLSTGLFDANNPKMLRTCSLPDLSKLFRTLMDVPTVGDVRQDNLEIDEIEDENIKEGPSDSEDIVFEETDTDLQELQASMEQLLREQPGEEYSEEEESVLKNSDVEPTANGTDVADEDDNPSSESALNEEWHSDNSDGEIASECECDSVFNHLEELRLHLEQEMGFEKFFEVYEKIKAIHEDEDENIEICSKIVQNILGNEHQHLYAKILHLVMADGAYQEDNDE
Chain of Mitogen-activated protein kinase kinase kinase 11 (Homo sapiens) (Q16584 whole entry, looked up): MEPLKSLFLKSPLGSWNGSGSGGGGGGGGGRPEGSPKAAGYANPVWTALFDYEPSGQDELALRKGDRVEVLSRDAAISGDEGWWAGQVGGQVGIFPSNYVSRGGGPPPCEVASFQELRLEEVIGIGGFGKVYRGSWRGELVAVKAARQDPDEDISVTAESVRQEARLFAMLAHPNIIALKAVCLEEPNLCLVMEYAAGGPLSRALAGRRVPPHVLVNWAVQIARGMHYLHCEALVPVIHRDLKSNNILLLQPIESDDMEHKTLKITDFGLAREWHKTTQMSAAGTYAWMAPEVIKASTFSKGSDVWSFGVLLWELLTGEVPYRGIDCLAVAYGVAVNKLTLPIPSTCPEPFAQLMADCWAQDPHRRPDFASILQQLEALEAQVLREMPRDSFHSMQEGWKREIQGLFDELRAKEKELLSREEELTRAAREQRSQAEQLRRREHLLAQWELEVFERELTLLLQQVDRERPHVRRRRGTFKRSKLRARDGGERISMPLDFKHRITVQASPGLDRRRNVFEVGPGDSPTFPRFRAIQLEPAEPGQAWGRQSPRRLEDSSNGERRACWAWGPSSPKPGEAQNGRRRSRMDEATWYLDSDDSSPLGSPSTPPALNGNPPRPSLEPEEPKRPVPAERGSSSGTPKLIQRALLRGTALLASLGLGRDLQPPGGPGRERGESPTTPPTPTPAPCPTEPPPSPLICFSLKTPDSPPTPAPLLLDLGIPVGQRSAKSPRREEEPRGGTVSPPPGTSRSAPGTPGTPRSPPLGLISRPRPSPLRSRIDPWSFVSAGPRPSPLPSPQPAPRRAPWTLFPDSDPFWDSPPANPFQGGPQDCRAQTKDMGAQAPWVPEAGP
Chain of Tyrosine-protein kinase JAK3 (Homo sapiens) (P52333 whole entry): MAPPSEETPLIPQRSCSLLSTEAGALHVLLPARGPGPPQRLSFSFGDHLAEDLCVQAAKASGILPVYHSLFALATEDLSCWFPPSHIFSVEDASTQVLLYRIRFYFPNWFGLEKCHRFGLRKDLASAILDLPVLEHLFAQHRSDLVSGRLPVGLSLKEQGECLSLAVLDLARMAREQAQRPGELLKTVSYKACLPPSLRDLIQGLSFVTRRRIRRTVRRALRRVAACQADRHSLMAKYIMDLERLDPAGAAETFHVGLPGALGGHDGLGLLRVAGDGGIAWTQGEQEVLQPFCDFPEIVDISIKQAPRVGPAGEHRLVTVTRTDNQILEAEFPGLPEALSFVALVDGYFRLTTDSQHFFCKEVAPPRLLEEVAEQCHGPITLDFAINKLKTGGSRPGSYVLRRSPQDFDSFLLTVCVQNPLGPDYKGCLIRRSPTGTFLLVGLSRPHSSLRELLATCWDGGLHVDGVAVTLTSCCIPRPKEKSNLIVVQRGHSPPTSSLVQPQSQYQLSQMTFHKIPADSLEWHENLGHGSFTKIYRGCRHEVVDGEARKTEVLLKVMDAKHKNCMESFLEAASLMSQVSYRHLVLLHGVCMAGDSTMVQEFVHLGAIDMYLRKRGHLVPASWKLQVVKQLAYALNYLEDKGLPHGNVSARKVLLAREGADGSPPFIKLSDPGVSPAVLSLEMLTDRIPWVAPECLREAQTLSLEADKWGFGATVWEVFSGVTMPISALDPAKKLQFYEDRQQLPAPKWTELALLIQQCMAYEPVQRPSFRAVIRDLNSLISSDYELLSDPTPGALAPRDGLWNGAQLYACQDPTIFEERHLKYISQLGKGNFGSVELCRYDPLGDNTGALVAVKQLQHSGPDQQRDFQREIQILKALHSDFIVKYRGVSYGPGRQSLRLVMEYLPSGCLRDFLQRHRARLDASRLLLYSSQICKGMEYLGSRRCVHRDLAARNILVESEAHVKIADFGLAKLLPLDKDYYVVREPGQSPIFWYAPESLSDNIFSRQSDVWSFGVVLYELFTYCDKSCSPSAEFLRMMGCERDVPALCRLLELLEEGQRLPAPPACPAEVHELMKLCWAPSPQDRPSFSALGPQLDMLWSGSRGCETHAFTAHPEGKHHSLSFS
Chain of Bone morphogenetic protein receptor type-1B (Homo sapiens) (O00238 whole entry): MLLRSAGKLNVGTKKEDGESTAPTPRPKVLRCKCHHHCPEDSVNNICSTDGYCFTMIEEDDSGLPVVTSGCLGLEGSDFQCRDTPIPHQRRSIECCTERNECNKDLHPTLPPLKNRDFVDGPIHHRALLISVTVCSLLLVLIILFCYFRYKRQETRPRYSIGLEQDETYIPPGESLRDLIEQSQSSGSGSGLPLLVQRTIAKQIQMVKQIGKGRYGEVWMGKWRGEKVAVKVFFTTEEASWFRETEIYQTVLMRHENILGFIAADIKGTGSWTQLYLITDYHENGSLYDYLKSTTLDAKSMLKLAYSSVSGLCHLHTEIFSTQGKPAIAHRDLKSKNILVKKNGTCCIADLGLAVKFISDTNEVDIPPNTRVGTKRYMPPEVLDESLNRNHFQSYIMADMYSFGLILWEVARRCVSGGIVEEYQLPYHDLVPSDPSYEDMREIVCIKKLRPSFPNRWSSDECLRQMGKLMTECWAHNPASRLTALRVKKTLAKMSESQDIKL

CCS(=O)(=O)c1cc2cc(C[C@@](O)(CC(C)(C)c3ccc(F)cc3C(N)=O)C(F)(F)F)[nH]c2cn1
residual activity [1]: 96% | residual activity [2]: 100% | residual activity [3]: 92% | residual activity [4]: 100% | residual activity [5]: 67% | residual activity [6]: 92% | residual activity [7]: 100% | residual activity [8]: 81% | residual activity [9]: 80% | residual activity [10]: 100% | residual activity [11]: 98% | residual activity [12]: 80% | residual activity [13]: 0% | residual activity [14]: 100% | residual activity [15]: 76% | residual activity [16]: 96% | residual activity [17]: 97% | residual activity [18]: 68% | residual activity [19]: 67% | residual activity [20]: 88% | residual activity [21]: 74% | residual activity [22]: 90% | residual activity [23]: 99% | residual activity [24]: 53% | residual activity [25]: 73% | residual activity [26]: 86% | inhibition [27]: 6.5% | residual activity [28]: 99% | residual activity [29]: 67% | residual activity [30]: 100% | residual activity [31]: 100% | residual activity [32]: 69% | residual activity [33]: 55% | residual activity [34]: 97% | residual activity [35]: 90% | residual activity [36]: 94% | residual activity [37]: 78% | residual activity [38]: 100% | residual activity [39]: 85% | residual activity [40]: 95% | residual activity [41]: 100% | residual activity [42]: 100% | residual activity [43]: 90% | residual activity [44]: 100% | residual activity [45]: 88%

CCS(=O)(=O)c1cc2cc(C[C@](O)(CC(C)(C)c3ccc(F)cc3C(N)=O)C(F)(F)F)[nH]c2cn1
residual activity [1]: 100% | residual activity [2]: 100% | residual activity [3]: 100% | residual activity [4]: 100% | residual activity [5]: 95% | residual activity [6]: 100% | residual activity [7]: 94% | residual activity [8]: 93% | residual activity [9]: 82% | residual activity [10]: 53% | residual activity [11]: 100% | residual activity [12]: 74% | residual activity [13]: 100% | residual activity [14]: 100% | residual activity [15]: 72% | residual activity [16]: 100% | residual activity [17]: 90% | residual activity [18]: 91% | residual activity [19]: 96% | residual activity [20]: 100% | residual activity [21]: 85% | residual activity [22]: 94% | residual activity [23]: 82% | residual activity [24]: 45% | residual activity [25]: 100% | residual activity [26]: 100% | inhibition [27]: 24.7% | residual activity [28]: 100% | residual activity [29]: 66% | residual activity [30]: 93% | residual activity [31]: 100% | residual activity [32]: 83% | residual activity [33]: 100% | residual activity [34]: 100% | residual activity [35]: 100% | residual activity [36]: 90% | residual activity [37]: 100% | residual activity [38]: 94% | residual activity [39]: 92% | residual activity [40]: 92% | residual activity [41]: 100% | residual activity [42]: 100% | residual activity [43]: 100% | residual activity [44]: 89% | residual activity [45]: 100%
